# Assay results: patent US10758534B2 (Vertex Pharmaceuticals Incorporated, priority 2014, dated 2020)
# Like-named read-outs stand apart in the source and are kept apart here.
# Molecular target: T1, F508del (Homo sapiens, UniProt P13569, DEL508-508)
# T1 construct: expressed in transfected cells
# Test: Protocol 2: FRET membrane potential optical assay (VIPR), identification of correction compounds
# Format: cell-based
# Procedure, shortened: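 Single-addition HTS format: F508del-expressing NIH3T3 cells pre-incubated 16 hrs at 37° C. ± compound, with 27° C. culture as positive control. Channel activation by forskolin 10 μM and genistein 20 μM upon switch to gluconate bath, pH 7.4; read-out is FRET-based depolarization signal.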
# [1] = Table 3, compounds of Table 1 as modulators of CFTR activity, protocol not stated
# [2] = F508del CFTR modulator activity, compounds of Table 1, read-out: EC30
# T1 sequence (P13569 with tags, fused parts or gaps DEL508-508): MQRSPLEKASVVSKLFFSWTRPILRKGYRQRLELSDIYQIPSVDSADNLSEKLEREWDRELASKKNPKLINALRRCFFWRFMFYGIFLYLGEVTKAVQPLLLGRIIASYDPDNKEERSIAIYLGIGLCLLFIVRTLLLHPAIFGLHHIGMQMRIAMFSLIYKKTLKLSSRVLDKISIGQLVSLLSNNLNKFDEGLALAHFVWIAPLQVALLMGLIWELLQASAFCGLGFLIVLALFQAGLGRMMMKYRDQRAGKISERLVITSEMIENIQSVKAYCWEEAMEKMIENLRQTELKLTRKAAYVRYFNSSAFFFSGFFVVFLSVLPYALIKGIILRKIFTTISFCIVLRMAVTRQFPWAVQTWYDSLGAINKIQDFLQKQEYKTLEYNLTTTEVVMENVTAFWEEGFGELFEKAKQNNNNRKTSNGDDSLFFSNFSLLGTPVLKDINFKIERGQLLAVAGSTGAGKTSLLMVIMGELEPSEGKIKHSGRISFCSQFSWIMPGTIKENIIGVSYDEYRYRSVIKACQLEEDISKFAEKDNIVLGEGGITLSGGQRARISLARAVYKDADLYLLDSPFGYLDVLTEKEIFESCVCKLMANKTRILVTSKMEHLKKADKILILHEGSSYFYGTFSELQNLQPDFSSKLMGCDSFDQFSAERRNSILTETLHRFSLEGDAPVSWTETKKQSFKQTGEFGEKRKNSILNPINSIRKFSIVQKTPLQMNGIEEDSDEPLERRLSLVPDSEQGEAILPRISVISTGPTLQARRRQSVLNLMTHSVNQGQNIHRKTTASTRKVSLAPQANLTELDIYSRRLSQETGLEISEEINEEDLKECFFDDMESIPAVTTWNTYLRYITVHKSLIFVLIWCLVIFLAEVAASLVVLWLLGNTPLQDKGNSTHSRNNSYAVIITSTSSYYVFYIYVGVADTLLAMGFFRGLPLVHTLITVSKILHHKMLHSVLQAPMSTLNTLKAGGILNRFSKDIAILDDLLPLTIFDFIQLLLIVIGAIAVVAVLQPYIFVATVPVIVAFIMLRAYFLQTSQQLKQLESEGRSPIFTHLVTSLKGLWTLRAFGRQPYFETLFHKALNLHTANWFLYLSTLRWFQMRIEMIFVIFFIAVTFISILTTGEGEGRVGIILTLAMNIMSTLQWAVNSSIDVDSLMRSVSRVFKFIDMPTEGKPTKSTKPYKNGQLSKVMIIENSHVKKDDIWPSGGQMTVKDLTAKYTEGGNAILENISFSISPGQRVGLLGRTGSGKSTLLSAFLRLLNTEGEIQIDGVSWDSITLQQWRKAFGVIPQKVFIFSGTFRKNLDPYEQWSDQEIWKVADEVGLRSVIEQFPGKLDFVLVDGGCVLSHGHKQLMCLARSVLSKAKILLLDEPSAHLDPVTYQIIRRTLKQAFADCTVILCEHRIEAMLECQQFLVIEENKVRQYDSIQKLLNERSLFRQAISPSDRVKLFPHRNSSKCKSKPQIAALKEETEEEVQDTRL
SMILES,EC30 [1],EC30 [2] [nM]
"COc1cccc(S(=O)(=O)NC(=O)C2c3ccccc3CN2Cc2c(C)cc(C)cc2C)c1 (stereo not shown) [Compound 16, N-(3-methoxyphenyl)sulfonyl-2-[(2,4,6-trimethylphenyl)methyl]isoindoline-1-carboxamide]",+++ (“+++” means <3 uM),–
"CC(C)(C)c1cc(C(=O)NS(=O)(=O)c2ccccc2)n(Cc2c(Cl)cc(Cl)cc2Cl)n1 [Compound 145, N-(benzenesulfonyl)-5-tert-butyl-2-[(2,4,6-trichlorophenyl)methyl]pyrazole-3-carboxamide]",+++ (“+++” means <3 uM),–
"C#CC1CCCN(c2nc(-c3cc(F)cc(OCC(C)C)c3)ccc2C(=O)NS(=O)(=O)c2ccn[nH]2)C1 (stereo not shown) [Compound 431, 2-(3-ethynyl-1-piperidyl)-6-(3-fluoro-5-isobutoxy-phenyl)-N-(1H-pyrazol-5-ylsulfonyl)pyridine-3-carboxamide]",++ (“++” means between 3 uM and 10 uM),–
"CC(C)COc1cc(F)cc(-c2ccc(C(=O)NS(=O)(=O)c3cccc(N)n3)c(N3CC4(CCC4)CC3(C)C)n2)c1 [Compound 2589, N-[(6-amino-2-pyridyl)sulfonyl]-2-(6,6-dimethyl-7-azaspiro[3.4]octan-7-yl)-6-(3-fluoro-5-isobutoxy-phenyl)pyridine-3-carboxamide]",–,< 3000
"Cc1cc(C#N)cc(C)c1Oc1nc(C(C)(C)C)ccc1C(=O)NS(=O)(=O)c1cccc(N)c1 [Compound 111, N-(3-aminophenyl)sulfonyl-6-tert-butyl-2-(4-cyano-2,6-dimethyl-phenoxy)pyridine-3-carboxamide]",+++ (“+++” means <3 uM),–
"Cc1cc(C)c(Oc2nc(-c3ccc(F)c4c3OCO4)ccc2C(=O)NS(=O)(=O)c2cccc(N)n2)c(C)c1 [Compound 345, N-[(6-amino-2-pyridyl)sulfonyl]-6-(7-fluoro-1,3-benzodioxol-4-yl)-2-(2,4,6-trimethylphenoxy)pyridine-3-carboxamide]",+++ (“+++” means <3 uM),–
"Cc1cccc(C)c1Oc1nc(-c2cc(F)cc(OCC(C)C)c2)ccc1C(=O)NS(=O)(=O)c1ccc(O)c(N)n1 [Compound 2331, N-[(6-amino-5-hydroxy-2-pyridyl)sulfonyl]-2-(2,6-dimethylphenoxy)-6-(3-fluoro-5-isobutoxy-phenyl)pyridine-3-carboxamide]",–,< 3000
"Cc1cc(C)c(Oc2nc(-n3nc(C(F)(F)F)cc3C)ccc2C(=O)NS(=O)(=O)c2cccc(N)n2)c(C)c1 [Compound 633, N-[(6-amino-2-pyridyl)sulfonyl]-6-[5-methyl-3-(trifluoromethyl)pyrazol-1-yl]-2-(2,4,6-trimethylphenoxy)pyridine-3-carboxamide]",+++ (“+++” means <3 uM),–
"CC(C)Oc1ccc(-c2ccc(C(=O)NS(=O)(=O)c3cccc(N)n3)c(N3CC(c4ccccc4)CC3C)n2)cn1 (stereo not shown) [Compound 502, N-[(6-amino-2-pyridyl)sulfonyl]-6-(6-isopropoxy-3-pyridyl)-2-(2-methyl-4-phenyl-pyrrolidin-1-yl)pyridine-3-carboxamide]",+++ (“+++” means <3 uM),–
"COc1ccccc1-c1cc(C(=O)NS(=O)(=O)c2cccc(N)c2)n(C(C)c2ccccc2)n1 (stereo not shown) [Compound 40, N-(3-aminophenyl)sulfonyl-5-(2-methoxyphenyl)-2-(1-phenylethyl)pyrazole-3-carboxamide]",+++ (“+++” means <3 uM),–
"Cc1ccccc1CN1Cc2ccccc2C1(C)C(=O)NS(=O)(=O)c1cccc(N)n1 (stereo not shown) [Compound 666, N-[(6-amino-2-pyridyl)sulfonyl]-1-methyl-2-(o-tolylmethyl)isoindoline-1-carboxamide]",++ (“++” means between 3 uM and 10 uM),–
"CC(C)Oc1ccc(-c2ccc(C(=O)NS(=O)(=O)c3cccc(N)n3)c(N3CC4C(C3)C4(C)C)n2)cn1 (stereo not shown) [Compound 596, N-[(6-amino-2-pyridyl)sulfonyl]-2-(6,6-dimethyl-3-azabicyclo[3.1.0]hexan-3-yl)-6-(6-isopropoxy-3-pyridyl)pyridine-3-carboxamide]",++ (“++” means between 3 uM and 10 uM),–
"Cc1cc(C)c(Oc2nc(-c3ccc(C)nc3)ccc2C(=O)NS(=O)(=O)c2cccc(N)n2)c(C)c1 [Compound 513, N-[(6-amino-2-pyridyl)sulfonyl]-6-(6-methyl-3-pyridyl)-2-(2,4,6-trimethylphenoxy)pyridine-3-carboxamide]",++ (“++” means between 3 uM and 10 uM),–
"Cc1cc(C)c(CN2CC(C)(C)c3ccccc3C2C(=O)NS(=O)(=O)c2cccc(N)n2)c(C)c1 (stereo not shown) [Compound 140, N-[(6-amino-2-pyridyl)sulfonyl]-4,4-dimethyl-2-[(2,4,6-trimethylphenyl)methyl]-1,3-dihydroisoquinoline-1-carboxamide]",+++ (“+++” means <3 uM),–
"CC(C)c1ccc(-c2ccc(C(=O)NS(=O)(=O)c3ccn[nH]3)c(N3[C@H](C)CC[C@@H]3C)n2)cc1 [Compound 414, 2-[(2S,5R)-2,5-dimethylpyrrolidin-1-yl]-6-(4-isopropylphenyl)-N-(1H-pyrazol-5-ylsulfonyl)pyridine-3-carboxamide]",+++ (“+++” means <3 uM),–

# Next, values leading:
EC30 [1],EC30 [2] [nM],SMILES
+++ (“+++” means <3 uM),–,"CC(C)Oc1ccc(-c2ccc(C(=O)NS(=O)(=O)c3ccn[nH]3)c(N3CCC[C@H](c4ccccc4)C3)n2)cn1 [Compound 741, 6-(6-isopropoxy-3-pyridyl)-2-[(3R)-3-phenyl-1-piperidyl]-N-(1H-pyrazol-5-ylsulfonyl)pyridine-3-carboxamide]"
–,< 3000,"CCOC(=O)C1CCN(c2cccc(S(=O)(=O)NC(=O)c3cccnc3N3CC(C)CC3(C)C)n2)CC1 (stereo not shown) [Compound 2488, ethyl 1-[6-[[2-(2,2,4-trimethylpyrrolidin-1-yl)pyridine-3-carbonyl]sulfamoyl]-2-pyridyl]piperidine-4-carboxylate]"
+++ (“+++” means <3 uM),–,"Cc1cc(C)c(Oc2nc(-c3cccnc3OCC(F)(F)F)ccc2C(=O)NS(=O)(=O)c2cccc(N)n2)c(C)c1 [Compound 697, N-[(6-amino-2-pyridyl)sulfonyl]-6-[2-(2,2,2-trifluoroethoxy)-3-pyridyl]-2-(2,4,6-trimethylphenoxy)pyridine-3-carboxamide]"
–,3000 to 10000,CC1CN(c2ncccc2C(=O)NS(=O)(=O)c2cccc(Oc3ccc4c(c3)CCC4=O)n2)C(C)(C)C1 (stereo not shown) [Compound 2733]
–,< 3000,"CCOc1ccc(-c2ccc(C(=O)NS(=O)(=O)c3ccc[nH]c3=O)c(N3C[C@@H](C)CC3(C)C)n2)cc1 [Compound 2207, 6-(4-ethoxyphenyl)-N-[(2-oxo-1H-pyridin-3-yl)sulfonyl]-2-[(4S)-2,2,4-trimethylpyrrolidin-1-yl]pyridine-3-carboxamide]"
–,< 3000,"COc1ccc(F)cc1-c1ccc(C(=O)NS(=O)(=O)c2cccnc2N)c(N2C[C@@H](C)CC2(C)C)n1 [Compound 2189, N-[(2-amino-3-pyridyl)sulfonyl]-6-(5-fluoro-2-methoxy-phenyl)-2-[(4S)-2,2,4-trimethylpyrrolidin-1-yl]pyridine-3-carboxamide]"
–,< 3000,"Cc1ccc(-c2ccc(C(=O)NS(=O)(=O)c3cccnc3N)c(N3C[C@@H](C)CC3(C)C)n2)cc1F [Compound 2345, N-[(2-amino-3-pyridyl)sulfonyl]-6-(3-fluoro-4-methyl-phenyl)-2-[(4S)-2,2,4-trimethylpyrrolidin-1-yl]pyridine-3-carboxamide]"
–,< 3000,"C[C@@H]1CN(c2nc(-c3cc(F)c(F)cc3F)ccc2C(=O)NS(=O)(=O)c2cccnc2N)C(C)(C)C1 [Compound 2035, N-[(2-amino-3-pyridyl)sulfonyl]-6-(2,4,5-trifluorophenyl)-2-[(4S)-2,2,4-trimethylpyrrolidin-1-yl]pyridine-3-carboxamide]"
–,< 3000,"C[C@@H]1CN(c2nc(C3CCCOC3)ccc2C(=O)NS(=O)(=O)c2cccnc2N)C(C)(C)C1 (stereo partly drawn) [Compound 2311, N-[(2-amino-3-pyridyl)sulfonyl]-6-tetrahydropyran-3-yl-2-[(4S)-2,2,4-trimethylpyrrolidin-1-yl]pyridine-3-carboxamide]"
+++ (“+++” means <3 uM),–,"CC(C)Oc1ccc(-c2ccc(C(=O)NS(=O)(=O)c3cccc(N)n3)c(N3CCCCC3c3ccccc3)n2)cn1 (stereo not shown) [Compound 731, N-[(6-amino-2-pyridyl)sulfonyl]-6-(6-isopropoxy-3-pyridyl)-2-(2-phenyl-1-piperidyl)pyridine-3-carboxamide]"
–,< 3000,CC(C)COc1cc(F)cc(-c2ccc(C(=O)NS(=O)(=O)c3cccc(N)n3)c(N3CC(C(F)(F)F)CC3(C)C)n2)c1 (stereo not shown) [Compound 2573]
+++ (“+++” means <3 uM),–,"CC(C)Oc1ccc(-c2ccc(C(=O)NS(=O)(=O)c3cccc(N)n3)c(N3C(C)CC4CCCCC43)n2)cn1 (stereo not shown) [Compound 675, N-[(6-amino-2-pyridyl)sulfonyl]-6-(6-isopropoxy-3-pyridyl)-2-(2-methyl-2,3,3a,4,5,6,7,7a-octahydroindol-1-yl)pyridine-3-carboxamide]"
++ (“++” means between 3 uM and 10 uM),–,"CC(C)(C)c1ccc(C(=O)NS(=O)(=O)c2ccc(N)cc2)c(N2CCCCC2)n1 [Compound 753, N-(4-aminophenyl)sulfonyl-6-tert-butyl-2-(1-piperidyl)pyridine-3-carboxamide]"
–,3000 to 10000,"CC1CN(c2ncccc2C(=O)NS(=O)(=O)c2cccc(OCC3CCOCC3)n2)C(C)(C)C1 (stereo not shown) [Compound 2032, N—[[6-(tetrahydropyran-4-ylmethoxy)-2-pyridyl]sulfonyl]-2-(2,2,4-trimethylpyrrolidin-1-yl)pyridine-3-carboxamide]"
–,3000 to 10000,"CC1CN(c2ncccc2C(=O)NS(=O)(=O)c2cccc(N3CCN(c4ncccn4)CC3)n2)C(C)(C)C1 (stereo not shown) [Compound 2621, N—[[6-(4-pyrimidin-2-ylpiperazin-1-yl)-2-pyridyl]sulfonyl]-2-(2,2,4-trimethylpyrrolidin-1-yl)pyridine-3-carboxamide]"
–,< 3000,"C[C@@H]1CN(c2nc(-c3cc(F)cc(F)c3)ccc2C(=O)NS(=O)(=O)c2ccc[nH]c2=O)C(C)(C)C1 [Compound 2652, 6-(3,5-difluorophenyl)-N-[(2-oxo-1H-pyridin-3-yl)sulfonyl]-2-[(4S)-2,2,4-trimethylpyrrolidin-1-yl]pyridine-3-carboxamide]"
